Reference: patent publication US9242009B2, “Compositions and methods to treat neurodegenerative diseases” (The General Hospital Corporation, priority 2012, dated 2016)

How the values were obtained:
cleaved caspase-3 = test: Immunoblot of cleaved caspase-3 in SH-SY5Y after OGD; type: cell-based, Human; details: 50 μM added 8 hours after end of OGD; 15 hours OGD, 24 hours reoxygenation
Protocol: (§1) OGD for SH-SY5Y was performed by placing cells in a hypoxia chamber ([…] Technologies Inc.) for 15 hours, followed by 24 hours of reoxygenation as previously reported (FIG. 3A) (Serra-Pérez et al. (2008) Journal of Neurochemistry 106, 1237-1247). Briefly, medium was replaced with glucose-free RPMI 1640 with L-glutamine (Cellgro by Mediatech, Inc), deoxygenated with anaerobic gas mixture (93% N2-5% CO2-2% H2) for 30 minutes before use. Cells were then placed in a hypoxia chamber, flushed with anaerobic gas mixture (93% N2-5% CO2-2% H2) and incubated at 37° C. […]
(§2) Protein levels in SH-SY5Y were determined by standard immunoblot techniques using primary antibodies (1:1,000, Cell Signaling Technology Inc., Danvers, Mass.) against cleaved caspase-3, caspase-3, phosphorylated Akt at threonine 308, Akt, phosphorylated ERK1/2 at threonine 202 and tyrosine 204, Erk1/2, β-tubulin and phosphorylated tau protein at serine 202 and threonine 205 (1:250; Thermo scientific, MN1020), tau protein (1:1000; Thermo scientific, MN1010). Bound antibody was detected with a horseradish peroxidase-linked antibody directed against rabbit IgG (1:10,000˜1:25,000; Cell Signaling Technology Inc.), or mouse IgG (1:2,000; GE healthcare, NA931V) and was visualized using chemiluminescence with ECL Advance kit (GE healthcare).

SH-SY5Y = test: Amyloid beta-induced toxicity in SH-SY5Y (LDH release, MTT); type: cell-based, Human; details: 24 hours incubation with Aβ1-42 at 20 μM
Protocol: FIG. 12A-B is a set of two bar graphs showing cell viability of SH-SY5Y cells exposed to 20 μM amyloid beta (Aβ) and treated with memantine, ACS48, or S-memantine at 20 or 50 μM. Cell viability was estimated by LDH release assay in the left graph and MTT assay in the right graph.

[1] = test system: murine primary cortical neurons; test: Cytotoxicity of H2S donors to murine primary cortical neurons (LDH release); type: cell-based, mice; details: 50 μM; 24 hours; without memantine
Protocol: A microtiter plate containing cells was centrifuged at 250×g for 10 minutes and the supernatant was used for LDH measurement with LDH Cytotoxicity Detection Kit (Roche). After aspirating the medium, remaining cells were washed with PBS, then, 100 μl of 1% Triton-X was added to each well, followed by incubation at 37° C. for 30 minutes. Medium and lysates were used for LDH measurement at wavelength 492 nm. Percentage of released LDH was calculated with following formula: {LDH (medium)/LDH (medium+cell)×100}. Average value of control (cells without OGD) was deducted as background.

[2] = test system: murine primary cortical neurons; test: Amyloid beta-induced toxicity in murine primary cortical neurons (LDH release, MTT); type: cell-based, mice; details: 24 hours incubation with Aβ1-42 at 20 μM
Protocol: FIG. 13A-B is a set of two bar graphs depicting cell viability of murine primary cortical neurons exposed to 20 μM amyloid beta (Aβ) and treated with memantine, ACS48, or S-memantine at 5, 10, or 30 μM. Cell viability was estimated by LDH release assay in the left graph and MTT assay in the right graph.

[3] = test system: phosphorylated ERK1/2 at threonine 202 and tyrosine 204; test: Immunoblot of phosphorylated ERK1/2 in SH-SY5Y after OGD; type: cell-based, Human; details: 50 μM added 8 hours after end of OGD
Protocol: as §1, §2

SH-SY5Y cells = test: Intracellular sulfide levels in SH-SY5Y cells (HPLC); type: cell-based, Human; details: 20 μM, SH-SY5Y
Protocol: Human neuroblastoma SH-SY5Y cells were cultured in Eagle's medium/Ham's F-12 50/50 Mix (DMEM/F12, Cellgro by Mediatech, Inc.) supplemented with 10% fetal bovine serum (FBS) and 1% penicillin/streptomycin. The cells were seeded into 96 well plates (2×10^4 cells per well) for OGD and measurements of toxicity, 6 cm dishes (5×10^5 cells per dish) for measurements of sulfide and reduced-glutathione (GSH), or 10 cm dishes (1×10^6 cells per dish) for measurements of intracellular calcium. Cell culture medium was replaced every 2 days, and the cultures were maintained at 37° C. in 95% air/5% CO2 in a humidified incubator. Cells were used after reaching 80% confluent.
Concentration of free sulfide in SH-SY5Y cells was measured using high performance liquid chromatography (HPLC) (Tokuda et al. (2012) Antioxidants & Redox Signaling). Briefly, SH-SY5Y cells were seeded into 6 cm dishes (5×10^5 cells per dish). After being 80% confluent, 20 μM H2S donor was added to the dish and incubated at 37° C. Cells were washed with ice-cold Tris-HCl (100 mM, PH 9.5, DTPA 0.1 mM) buffer, scraped, transferred to microfuge tubes, and centrifuged. MBB (10 mM in acetonitrile, 50 μl) was added to 100 μl of supernatant. After 30 minutes of incubation at room temperature in dark, 50 μl of 200 mM 5-sulfosalicylic acid (SSA) was added. After centrifugation, supernatant was analyzed by HPLC. For sulfide levels in medium, after centrifugation, supernatant was used for MBB reaction as above.
In contrast, incubation of SH-SY5Y cells with S-memantine increased intracellular sulfide level more markedly than incubation with ACS48 at all time points after addition (˜10 fold at 4 hours, P<0.001 by two-way ANOVA with Bonferroni post-test). In a separate experiment, we examined whether or not incubation with memantine itself or incubation with ACS48 and memantine would affect intracellular sulfide levels in SH-SY5Y cells.

Compound: C[C@]12C[C@@H]3C[C@](C)(C1)C[C@@](NC(=O)c1ccc(-c4cssc4=S)cc1)(C3)C2 [S-memantine, N-((1r,3R,5S,7r)-3,5-dimethyladamantan-1-yl)-4-(3-thioxo-3H-1,2-dithiol-4-yl)-benzamide]
- Caspase-3 activation after OGD (cleaved caspase-3): prevented caspase-3 activation
- Cell viabilities after Aβ1-42 compared with memantine (SH-SY5Y): improved cell viabilities more markedly than did memantine
- Cell viabilities after Aβ1-42 (SH-SY5Y; compound 20 or 50 μM): improved cell viabilities
- LDH release (cytotoxicity) [1]: did not induce LDH release
- Cell viabilities after Aβ1-42 compared with memantine [2]: improved cell viabilities more markedly than did memantine
- Cell viabilities after Aβ1-42 ([2]; compound 5, 10 or 30 μM): improved cell viabilities
- Dephosphorylation of ERK after OGD [3]: attenuated dephosphorylation of ERK
- Intracellular sulfide levels (SH-SY5Y cells; 37° C.): increased intracellular sulfide levels
- Intracellular sulfide level relative to incubation with ACS48 (SH-SY5Y cells; at 4 hours): ~10 fold
